Source: patent US20250120967A1, “TYROSINE KINASES INHIBITORS AND USES THEREOF” (GREAT NOVEL THERAPEUTICS BIOTECH & MEDICALS CORPORATION, priority 2023, published 2025)

What was measured:
Assay in all cases: Tyrosine kinase inhibition assay
Assay type in all cases: biochemical
Details in all cases: single concentration 1.0 μM, read-out: percent inhibition
CSK = CSK (Homo sapiens, UniProt P41240)
In short: (§1)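 Single-point screen, 1.0 μM compound, 1% DMSO final; ATP at apparent Km. Buffer: 50 mM HEPES pH 7.5, 0.01% BRIJ-35, 10 mM MgCl2, 1 mM EGTA. Z′-LYTE readout, % inhibition; hit = >80%.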

PTK6 (Brk) = PTK6 (Brk) (Homo sapiens, UniProt Q13882)
PTK6 (Brk), sequence (Q13882 whole entry): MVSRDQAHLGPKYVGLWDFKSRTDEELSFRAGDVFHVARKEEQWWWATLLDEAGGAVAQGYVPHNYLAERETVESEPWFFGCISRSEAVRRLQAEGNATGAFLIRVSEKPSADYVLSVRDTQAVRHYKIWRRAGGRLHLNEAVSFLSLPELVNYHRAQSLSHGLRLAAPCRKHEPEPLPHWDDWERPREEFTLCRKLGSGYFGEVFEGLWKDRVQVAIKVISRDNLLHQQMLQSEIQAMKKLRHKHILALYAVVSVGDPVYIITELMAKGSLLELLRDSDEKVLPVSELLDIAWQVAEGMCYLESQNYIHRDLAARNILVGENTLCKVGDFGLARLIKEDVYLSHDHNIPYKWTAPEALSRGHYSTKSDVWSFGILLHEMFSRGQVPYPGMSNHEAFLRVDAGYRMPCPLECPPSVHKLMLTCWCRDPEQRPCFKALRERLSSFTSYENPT
In short: as §1

MAPK8 (JNK1) = MAPK8 (JNK1) (Homo sapiens, UniProt P45983)
MAPK8 (JNK1), sequence (P45983 whole entry): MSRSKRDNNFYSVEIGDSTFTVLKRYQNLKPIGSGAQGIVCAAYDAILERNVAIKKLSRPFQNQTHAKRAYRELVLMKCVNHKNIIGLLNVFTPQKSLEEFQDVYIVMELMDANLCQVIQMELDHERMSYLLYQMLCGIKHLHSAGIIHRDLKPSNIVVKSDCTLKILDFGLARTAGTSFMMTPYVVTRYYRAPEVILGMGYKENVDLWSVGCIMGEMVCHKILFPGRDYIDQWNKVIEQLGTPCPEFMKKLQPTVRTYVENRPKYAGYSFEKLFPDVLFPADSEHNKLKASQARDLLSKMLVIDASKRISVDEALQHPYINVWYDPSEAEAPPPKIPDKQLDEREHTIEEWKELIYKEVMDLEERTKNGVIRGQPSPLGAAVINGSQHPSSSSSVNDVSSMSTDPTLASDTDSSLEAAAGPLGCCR
In short: as §1

EPHA4 = EPHA4 (Homo sapiens, UniProt P54764)
EPHA4, sequence (P54764 20-986): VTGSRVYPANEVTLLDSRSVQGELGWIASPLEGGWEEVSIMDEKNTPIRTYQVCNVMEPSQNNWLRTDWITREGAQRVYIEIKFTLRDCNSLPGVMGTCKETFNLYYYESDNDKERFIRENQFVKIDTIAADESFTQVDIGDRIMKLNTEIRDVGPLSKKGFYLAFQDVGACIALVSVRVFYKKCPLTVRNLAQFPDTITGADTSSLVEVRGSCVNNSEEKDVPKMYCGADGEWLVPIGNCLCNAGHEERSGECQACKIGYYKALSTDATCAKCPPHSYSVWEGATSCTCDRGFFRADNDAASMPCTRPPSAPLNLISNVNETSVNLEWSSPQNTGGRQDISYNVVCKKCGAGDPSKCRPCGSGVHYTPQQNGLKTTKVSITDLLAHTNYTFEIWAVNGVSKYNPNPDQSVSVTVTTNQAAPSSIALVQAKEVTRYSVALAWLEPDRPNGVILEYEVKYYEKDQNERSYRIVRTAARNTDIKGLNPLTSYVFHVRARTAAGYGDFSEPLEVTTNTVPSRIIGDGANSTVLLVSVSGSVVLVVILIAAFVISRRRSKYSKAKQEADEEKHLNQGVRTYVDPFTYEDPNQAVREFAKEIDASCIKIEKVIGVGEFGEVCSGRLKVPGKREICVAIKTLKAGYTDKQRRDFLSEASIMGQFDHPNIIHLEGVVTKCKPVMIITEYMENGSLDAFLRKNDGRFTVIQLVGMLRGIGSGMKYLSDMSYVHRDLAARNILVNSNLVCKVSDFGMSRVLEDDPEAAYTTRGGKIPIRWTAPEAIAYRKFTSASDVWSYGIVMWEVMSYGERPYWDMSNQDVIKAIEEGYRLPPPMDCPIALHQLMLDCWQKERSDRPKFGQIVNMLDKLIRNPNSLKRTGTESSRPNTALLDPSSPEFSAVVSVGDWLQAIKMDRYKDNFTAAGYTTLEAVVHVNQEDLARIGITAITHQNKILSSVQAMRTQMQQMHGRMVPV
In short: as §1

JAK3 = molecular target: T1, JAK3 (Homo sapiens, UniProt P52333)
T1 sequence (P52333 1-1124): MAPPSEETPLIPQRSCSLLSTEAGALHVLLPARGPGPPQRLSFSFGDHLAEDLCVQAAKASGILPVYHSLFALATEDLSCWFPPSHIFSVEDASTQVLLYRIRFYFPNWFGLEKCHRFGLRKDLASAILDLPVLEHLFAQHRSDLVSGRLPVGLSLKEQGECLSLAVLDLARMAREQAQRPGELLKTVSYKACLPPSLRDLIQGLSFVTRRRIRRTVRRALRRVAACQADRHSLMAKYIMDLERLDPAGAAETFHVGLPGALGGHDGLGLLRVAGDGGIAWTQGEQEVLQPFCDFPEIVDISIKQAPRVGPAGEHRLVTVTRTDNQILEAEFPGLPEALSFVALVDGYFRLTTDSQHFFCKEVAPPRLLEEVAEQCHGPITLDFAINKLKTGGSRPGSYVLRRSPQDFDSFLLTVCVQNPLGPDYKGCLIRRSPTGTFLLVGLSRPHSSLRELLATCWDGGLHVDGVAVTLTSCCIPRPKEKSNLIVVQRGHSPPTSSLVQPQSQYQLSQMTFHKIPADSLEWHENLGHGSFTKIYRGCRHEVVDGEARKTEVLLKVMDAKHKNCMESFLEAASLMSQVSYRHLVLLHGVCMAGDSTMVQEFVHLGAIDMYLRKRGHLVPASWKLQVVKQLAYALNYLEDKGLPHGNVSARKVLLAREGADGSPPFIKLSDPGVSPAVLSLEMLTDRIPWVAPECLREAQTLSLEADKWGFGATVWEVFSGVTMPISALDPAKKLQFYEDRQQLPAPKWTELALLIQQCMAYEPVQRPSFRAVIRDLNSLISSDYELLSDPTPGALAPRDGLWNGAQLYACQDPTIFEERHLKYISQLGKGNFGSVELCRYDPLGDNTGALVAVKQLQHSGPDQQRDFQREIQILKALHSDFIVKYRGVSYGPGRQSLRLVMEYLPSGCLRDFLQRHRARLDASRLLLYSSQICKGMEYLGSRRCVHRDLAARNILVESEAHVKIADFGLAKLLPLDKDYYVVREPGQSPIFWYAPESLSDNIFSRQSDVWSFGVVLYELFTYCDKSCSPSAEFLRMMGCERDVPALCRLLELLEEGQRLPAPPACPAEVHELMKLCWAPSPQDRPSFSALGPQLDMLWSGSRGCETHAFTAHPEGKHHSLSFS
In short: as §1

DDR2 = molecular target: T2, DDR2 (Homo sapiens, UniProt Q16832)
T2 sequence (Q16832 22-855): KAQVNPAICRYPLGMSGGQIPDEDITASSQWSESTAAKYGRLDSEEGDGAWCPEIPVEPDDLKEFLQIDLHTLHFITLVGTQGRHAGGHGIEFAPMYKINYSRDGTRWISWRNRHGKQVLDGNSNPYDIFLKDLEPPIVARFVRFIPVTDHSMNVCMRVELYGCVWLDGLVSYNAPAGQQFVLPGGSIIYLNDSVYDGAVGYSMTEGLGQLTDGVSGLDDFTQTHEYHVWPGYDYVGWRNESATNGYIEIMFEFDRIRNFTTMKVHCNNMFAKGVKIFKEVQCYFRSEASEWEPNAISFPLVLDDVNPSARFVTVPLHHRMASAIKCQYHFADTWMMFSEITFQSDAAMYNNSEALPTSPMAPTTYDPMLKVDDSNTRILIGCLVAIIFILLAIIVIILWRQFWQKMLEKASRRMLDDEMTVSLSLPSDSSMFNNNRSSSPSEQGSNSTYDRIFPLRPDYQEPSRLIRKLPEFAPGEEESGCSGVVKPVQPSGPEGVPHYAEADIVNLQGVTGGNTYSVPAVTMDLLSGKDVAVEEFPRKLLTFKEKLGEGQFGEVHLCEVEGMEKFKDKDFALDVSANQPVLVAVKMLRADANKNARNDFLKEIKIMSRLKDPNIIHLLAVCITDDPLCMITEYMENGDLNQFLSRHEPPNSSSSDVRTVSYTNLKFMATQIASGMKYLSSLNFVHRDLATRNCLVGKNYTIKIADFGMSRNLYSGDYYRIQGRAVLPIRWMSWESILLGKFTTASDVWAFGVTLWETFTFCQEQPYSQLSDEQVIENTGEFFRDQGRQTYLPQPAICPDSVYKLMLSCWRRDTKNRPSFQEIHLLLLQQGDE
In short: as §1

FGFR3 = FGFR3 (Homo sapiens, UniProt P22607)
FGFR3, sequence (P22607 23-806): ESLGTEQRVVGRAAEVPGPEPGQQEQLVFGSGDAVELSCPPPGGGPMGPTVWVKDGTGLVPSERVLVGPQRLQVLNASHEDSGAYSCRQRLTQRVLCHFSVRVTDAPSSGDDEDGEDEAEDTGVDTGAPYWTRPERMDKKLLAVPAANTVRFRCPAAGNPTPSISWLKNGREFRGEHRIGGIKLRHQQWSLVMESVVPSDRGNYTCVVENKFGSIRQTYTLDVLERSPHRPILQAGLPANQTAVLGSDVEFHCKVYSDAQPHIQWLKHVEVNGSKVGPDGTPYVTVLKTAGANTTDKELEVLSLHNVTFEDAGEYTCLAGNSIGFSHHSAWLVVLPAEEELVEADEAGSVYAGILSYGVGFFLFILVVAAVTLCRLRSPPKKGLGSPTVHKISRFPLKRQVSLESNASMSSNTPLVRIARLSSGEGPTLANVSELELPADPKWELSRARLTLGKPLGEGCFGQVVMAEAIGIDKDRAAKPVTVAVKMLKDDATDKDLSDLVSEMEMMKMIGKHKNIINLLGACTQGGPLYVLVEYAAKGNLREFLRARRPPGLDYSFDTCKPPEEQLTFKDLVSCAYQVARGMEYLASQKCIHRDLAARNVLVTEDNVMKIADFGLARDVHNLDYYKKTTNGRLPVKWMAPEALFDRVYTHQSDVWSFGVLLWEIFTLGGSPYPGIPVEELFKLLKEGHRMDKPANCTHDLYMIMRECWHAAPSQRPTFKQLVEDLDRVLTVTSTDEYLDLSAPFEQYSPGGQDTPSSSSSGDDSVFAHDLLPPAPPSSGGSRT
In short: as §1

CSK, sequence (P41240 whole entry): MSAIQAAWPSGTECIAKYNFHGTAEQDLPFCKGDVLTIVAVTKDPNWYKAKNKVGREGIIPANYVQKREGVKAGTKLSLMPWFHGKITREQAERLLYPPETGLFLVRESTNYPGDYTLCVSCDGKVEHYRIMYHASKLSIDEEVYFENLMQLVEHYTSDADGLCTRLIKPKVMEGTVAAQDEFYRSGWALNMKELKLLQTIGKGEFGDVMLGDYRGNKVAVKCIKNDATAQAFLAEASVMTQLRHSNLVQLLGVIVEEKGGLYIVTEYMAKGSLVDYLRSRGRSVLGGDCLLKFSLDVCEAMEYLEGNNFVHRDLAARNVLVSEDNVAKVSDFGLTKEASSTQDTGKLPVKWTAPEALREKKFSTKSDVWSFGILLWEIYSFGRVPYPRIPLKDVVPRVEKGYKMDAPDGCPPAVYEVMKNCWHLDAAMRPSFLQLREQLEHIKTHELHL

Row | SMILES | inhibition at 1 µM (CSK) | inhibition at 1 µM (PTK6 (Brk)) | inhibition at 1 µM (MAPK8 (JNK1)) | inhibition at 1 µM (EPHA4) | inhibition at 1 µM (JAK3) | inhibition at 1 µM (DDR2) | inhibition at 1 µM (FGFR3)
1 | COc1cc2nccc(Oc3ccc(NC(=O)C4(C(=O)Nc5ccc(F)cc5)CC4)cc3)c2cc1OC [Cabozantinib, reference compound] | 49% | 103% | -2% | 100% | 9% | 100% | 16%
2 | COc1cc2nccc(Oc3ccc(NC(=O)C4(NC(=O)c5ccc(F)cc5)CC4)cc3F)c2cc1OC [Cbo-02, N-(1-((4-((6,7-diMethoxyquinolin-4-yl)oxy)-3-fluorophenyl)carbamoyl)cyclopropyl)-4-fluorobenzamide] | 87% | 73% | 5% | 79% | 11% | 32% | 4%
3 | COc1cc2nccc(Oc3ccc(NC(=O)C4(NC(=O)c5ccc(F)cc5)CC4)cc3F)c2cc1Oc1ccc(N)cc1F [Cbo-10] | 97% | 91% | 32% | 91% | 9% | 51% | 19%
4 | COc1cc2nccc(Oc3ccc(NC(=O)C4(NC(=O)c5ccc(F)cc5)CC4)cc3F)c2cc1Oc1c(F)cc(N)cc1F [Cbo-14] | 97% | 94% | 41% | 89% | 21% | 60% | 19%
5 | COc1cc2nccc(Oc3ccc(NC(=O)C4(C(=O)Nc5ccc(F)cc5)CC4)cc3F)c2cc1Oc1ccc(N)cc1F [Cbo-23] | 66% | 97% | -2% | 100% | 17% | 91% | 13%
